Reference: patent publication US5591714A, “Derivatives of A82846” (priority 1994, dated 1997)
In brackets after ≈: the same amount, converted by molar mass. Like-named read-outs stand apart in the source and are kept apart here.

Tests used:
Escherichia coli EC14 = test: MIC, standard agar-dilution assay; assay type: cell-based
Description: (§1) The formula I compounds have in vitro and in vivo activity against Gram-positive pathogenic bacteria. The MIC's were determined using a standard agar-dilution assays.

Escherichia coli N10 = test: MIC, standard agar-dilution assay; assay type: cell-based
Description: as §1

Escherichia coli TEM = test: MIC, standard agar-dilution assay; assay type: cell-based
Description: as §1

[1] = tested on: Haemophilus influenzae 76; test: MIC, standard agar-dilution assay; assay type: cell-based
Description: as §1

[2] = tested on: Haemophilus influenzae C.L.; test: MIC, standard agar-dilution assay; assay type: cell-based
Description: as §1

[3] = tested on: Klebsiella pneumoniae KAE; test: MIC, standard agar-dilution assay; assay type: cell-based
Description: as §1

[4] = tested on: Klebsiella pneumoniae X26; test: MIC, standard agar-dilution assay; assay type: cell-based
Description: as §1

[5] = tested on: Klebsiella pneumoniae X68; test: MIC, standard agar-dilution assay; assay type: cell-based
Description: as §1

[6] = tested on: Staphylococcus aureus NRRL X1.1; test: MIC, standard agar-dilution assay; assay type: cell-based
Description: as §1

[7] = tested on: Staphylococcus aureus V41; test: MIC, standard agar-dilution assay; assay type: cell-based
Description: as §1

[8] = tested on: Staphylococcus aureus X400; test: MIC, standard agar-dilution assay; assay type: cell-based
Description: as §1

[9] = tested on: Staphylococcus epidermidis 222; test: MIC, standard agar-dilution assay; assay type: cell-based
Description: as §1

[10] = tested on: Staphylococcus epidermidis EPI270; test: MIC, standard agar-dilution assay; assay type: cell-based
Description: as §1

[11] = tested on: Streptococcus pyogenes C203; test: MIC, standard agar-dilution assay; assay type: cell-based
Description: as §1

[12] = tested on: Staphylococcus aureus S13E; assay type: cell-based
Description: as §1

[13] = tested on: Streptococcus pneumoniae Park 1; assay type: cell-based
Description: as §1

Enterococcus faecium X66 = test: MIC, standard agar-dilution assay; assay type: cell-based
Description: as §1
^b Formerly Streptococcus faecium X66

[14] = tested on: Enterococcus faecalis 2041; test: MIC, standard agar-dilution assay; assay type: cell-based
Description: as §1
^c Formerly Streptococcus faecalis 2041

Staphylococcus aureus = test: In vivo activity, experimentally infected mice (ED50); conditions: Staphylococcus aureus infection; doses administered subcutaneously to mice 1 and 4 hours postinfection
Streptococcus pyogenes = test: as above; conditions: Streptococcus pyogenes infection; doses administered subcutaneously to mice 1 and 4 hours postinfection
Streptococcus pneumoniae = test: as above; conditions: Streptococcus pneumoniae infection; doses administered subcutaneously to mice 1 and 4 hours postinfection
[15] = tested on: vancomycin-resistant (Vanco^r) E. faecium and E. faecalis; test: Susceptibility of vancomycin-resistant enterococci, agar-dilution MIC; assay type: cell-based; conditions: for Geometric Mean MIC, Vanco^r Strains: n = 25 strains, end points read after 24-hour incubation
Description: (§2) End points were read after 24-hour incubation. The ratio was calculated by dividing the mean MIC of the compound against the vancomycin-resistant strains by the mean MIC of the compound against the vancomycin-susceptible strains.

[16] = tested on: vancomycin-susceptible (Vanco^s) E. faecium and E. faecalis; test: Susceptibility of vancomycin-susceptible enterococci, agar-dilution MIC; assay type: cell-based; conditions: n = 34 strains; end points read after 24-hour incubation
Description: as §2

[17] = tested on: six vancomycin-susceptible strains of staphylococci and enterococci; test: Effect of human serum on the MIC, serial dilution assay; assay type: cell-based; conditions: for MIC determined in absence of added serum: absence (-) of human serum; for MIC determined in presence of human serum: broth supplemented with human serum to 40%
Description: Another important property of the formula I compounds is the low binding of the compounds to serum proteins when compared with other glycopeptide antibiotics. […] The ratio of the MIC measured in the presence of added serum to the MIC measured in the absence of added serum ("ratio") is an indication of the degree of serum binding. […] A ratio that is greater than one, for example about ten, indicates the compound has a high degree of serum binding.

Row | SMILES | MIC (Escherichia coli EC14) [µg/mL] | MIC (Escherichia coli N10) [µg/mL] | MIC (Escherichia coli TEM) [µg/mL] | MIC [1] [µg/mL] | MIC [2] [µg/mL] | MIC [3] [µg/mL] | MIC [4] [µg/mL] | MIC [5] [µg/mL] | MIC [6] | MIC [7] | MIC [8] | MIC [9] | MIC [10] | MIC [11] | MIC [13] | MIC (Enterococcus faecium X66) | MIC [14] | Ratio (mean MIC vancomycin-resistant strains / mean MIC vancomycin-susceptible strains) [15] | Geometric Mean MIC, Vanco^r Strains [15] [µg/mL] | Geometric Mean MIC, Vanco^s Strains [16] [µg/mL] | further results
1 | CCCCCCCCN[C@@]1(C)C[C@H](O[C@H]2[C@H](Oc3c4cc5cc3Oc3ccc(cc3Cl)[C@@H](O)[C@@H](NC(=O)[C@@H](CC(C)C)NC)C(=O)N[C@@H](CC(N)=O)C(=O)N[C@H]5C(=O)N[C@H]3C(=O)N[C@H](C(=O)N[C@H](C(=O)O)c5cc(O)cc(O)c5-c5cc3ccc5O)[C@H](O[C@H]3C[C@](C)(N)[C@@H](O)[C@H](C)O3)c3ccc(cc3)O4)O[C@H](CO)[C@@H](O)[C@@H]2O)O[C@@H](C)[C@@H]1O [Compound 1] | > 128 | > 128 | > 128 | > 128 | > 128 | > 128 | > 128 | > 128 | 1 µg/mL (≈ 0.599 µM) | 1 µg/mL (≈ 0.599 µM) | 1 µg/mL (≈ 0.599 µM) | 1 µg/mL (≈ 0.599 µM) | 1 µg/mL (≈ 0.599 µM) | .25 µg/mL (≈ 0.15 µM) | .5 µg/mL (≈ 0.299 µM) | 1 µg/mL (≈ 0.599 µM) | 1 µg/mL (≈ 0.599 µM) | 4.9 | 9.7 | 2.2 | MIC [12]: .5 µg/mL (≈ 0.299 µM); ED50 (Staphylococcus aureus): 3.35 mg/kg/2; ED50 (Streptococcus pyogenes): 0.43 mg/kg/2; ED50 (Streptococcus pneumoniae): 0.43 mg/kg/2
2 | CN[C@H](CC(C)C)C(=O)N[C@H]1C(=O)N[C@@H](CC(N)=O)C(=O)N[C@H]2C(=O)N[C@H]3C(=O)N[C@H](C(=O)N[C@H](C(=O)O)c4cc(O)cc(O)c4-c4cc3ccc4O)[C@H](O[C@H]3C[C@](C)(N)[C@@H](O)[C@H](C)O3)c3ccc(c(Cl)c3)Oc3cc2cc(c3O[C@@H]2O[C@H](CO)[C@@H](O)[C@H](O)[C@H]2O[C@H]2C[C@](C)(N)[C@@H](O)[C@H](C)O2)Oc2ccc(cc2Cl)[C@H]1O [Compound A82846B, A82846B, reference compound] | – | – | – | – | – | – | – | – | – | – | – | – | – | – | – | – | – | 18.4 | 9.4 | 0.51 | ratio of the MIC in the presence of added serum to the MIC in the absence of added serum [17]: 1.5; MIC determined in absence of added serum [17]: 0.5; MIC determined in presence of human serum [17]: 0.75
3 | CNC(CC(C)C)C(=O)NC1C(=O)NC(CC(N)=O)C(=O)NC2C(=O)NC3C(=O)NC(C(=O)NC(C(=O)O)c4cc(O)cc(O)c4-c4cc3ccc4O)C(OC3CC(C)(N)C(O)C(C)O3)c3ccc(c(Cl)c3)Oc3cc2cc(c3OC2OC(CO)C(O)C(O)C2OC2CC(C)(NCC(c3ccccc3)c3ccccc3)C(O)C(C)O2)Oc2ccc(cc2Cl)C1O (centres unmarked) [Compound 45] | > 128 | > 128 | > 128 | > 128 | > 128 | > 128 | > 128 | > 128 | .25 µg/mL (≈ 0.141 µM) | .5 µg/mL (≈ 0.282 µM) | .5 µg/mL (≈ 0.282 µM) | .5 µg/mL (≈ 0.282 µM) | 1 µg/mL (≈ 0.564 µM) | .125 µg/mL (≈ 0.0705 µM) | .25 µg/mL (≈ 0.141 µM) | .5 µg/mL (≈ 0.282 µM) | .5 µg/mL (≈ 0.282 µM) | 5.5 | 9.4 | 1.7 | MIC [12]: .5 µg/mL (≈ 0.282 µM); ED50 (Staphylococcus aureus): 0.77 mg/kg/2; ED50 (Streptococcus pyogenes): 0.1 mg/kg/2; ED50 (Streptococcus pneumoniae): 0.1 mg/kg/2
4 | CNC(CC(C)C)C(=O)NC1C(=O)NC(CC(N)=O)C(=O)NC2C(=O)NC3C(=O)NC(C(=O)NC(C(=O)O)c4cc(O)cc(O)c4-c4cc3ccc4O)C(OC3CC(C)(N)C(O)C(C)O3)c3ccc(c(Cl)c3)Oc3cc2cc(c3OC2OC(CO)C(O)C(O)C2OC2CC(C)(NCc3ccc(Cl)cc3)C(O)C(C)O2)Oc2ccc(cc2Cl)C1O (centres unmarked) [Compound 60] | > 128 | > 128 | > 128 | > 128 | > 128 | > 128 | > 128 | > 128 | .125 µg/mL (≈ 0.0728 µM) | .25 µg/mL (≈ 0.146 µM) | .5 µg/mL (≈ 0.291 µM) | .25 µg/mL (≈ 0.146 µM) | .5 µg/mL (≈ 0.291 µM) | .06 µg/mL (≈ 0.0349 µM) | .06 µg/mL (≈ 0.0349 µM) | .25 µg/mL (≈ 0.146 µM) | .25 µg/mL (≈ 0.146 µM) | 5.5 | 3.6 | 0.65 | ED50 (Staphylococcus aureus): 0.25 mg/kg/2; ED50 (Streptococcus pyogenes): 0.06 mg/kg/2; ED50 (Streptococcus pneumoniae): 0.08 mg/kg/2; MIC determined in absence of added serum [17]: 0.76; ratio of the MIC in the presence of added serum to the MIC in the absence of added serum ([17]; indication of the degree of serum binding): 2.0; MIC determined in presence of human serum [17]: 1.5
5 | CN[C@H](CC(C)C)C(=O)N[C@H]1C(=O)N[C@@H](CC(N)=O)C(=O)N[C@H]2C(=O)N[C@H]3C(=O)N[C@H](C(=O)N[C@H](C(=O)O)c4cc(O)cc(O)c4-c4cc3ccc4O)[C@H](O[C@H]3C[C@](C)(N)[C@@H](O)[C@H](C)O3)c3ccc(c(Cl)c3)Oc3cc2cc(c3O[C@@H]2O[C@H](CO)[C@@H](O)[C@H](O)[C@H]2O[C@H]2C[C@](C)(NCCc3ccccc3)[C@@H](O)[C@H](C)O2)Oc2ccc(cc2Cl)[C@H]1O [Compound 43] | > 128 | > 128 | > 128 | > 128 | > 128 | > 128 | > 128 | > 128 | .25 µg/mL (≈ 0.147 µM) | .5 µg/mL (≈ 0.295 µM) | 1 µg/mL (≈ 0.589 µM) | .25 µg/mL (≈ 0.147 µM) | 1 µg/mL (≈ 0.589 µM) | .5 µg/mL (≈ 0.295 µM) | .125 µg/mL (≈ 0.0737 µM) | 1 µg/mL (≈ 0.589 µM) | .5 µg/mL (≈ 0.295 µM) | 5.2 | 4.0 | 0.77 | MIC [12]: 1 µg/mL (≈ 0.589 µM); ED50 (Staphylococcus aureus): 0.125 mg/kg/2; ED50 (Streptococcus pyogenes): 0.38 mg/kg/2; ED50 (Streptococcus pneumoniae): 0.11 mg/kg/2
6 | CCN(CC)c1ccc(CNC2(C)CC(OC3C(Oc4c5cc6cc4Oc4ccc(cc4Cl)C(OC4CC(C)(N)C(O)C(C)O4)C4NC(=O)C(NC(=O)C6NC(=O)C(CC(N)=O)NC(=O)C(NC(=O)C(CC(C)C)NC)C(O)c6ccc(c(Cl)c6)O5)c5ccc(O)c(c5)-c5c(O)cc(O)cc5C(C(=O)O)NC4=O)OC(CO)C(O)C3O)OC(C)C2O)cc1 (centres unmarked) [Compound 56] | > 128 | > 128 | > 128 | > 128 | > 128 | > 128 | > 128 | > 128 | .5 µg/mL (≈ 0.285 µM) | .5 µg/mL (≈ 0.285 µM) | 1 µg/mL (≈ 0.57 µM) | .5 µg/mL (≈ 0.285 µM) | 2 µg/mL (≈ 1.14 µM) | .5 µg/mL (≈ 0.285 µM) | .5 µg/mL (≈ 0.285 µM) | 1 µg/mL (≈ 0.57 µM) | .5 µg/mL (≈ 0.285 µM) | 7.0 | 5.1 | 0.73 | MIC [12]: 1 µg/mL (≈ 0.57 µM); ED50 (Staphylococcus aureus): 0.65 mg/kg/2; ED50 (Streptococcus pyogenes): .06 mg/kg/2; ED50 (Streptococcus pneumoniae): .09 mg/kg/2
